From patent US20020132800A1, “Dietary supplement composition and method for improving and maintaining healthy skin” (priority 2000, published 2002)

What was measured:
[1] = Stability testing of the preferred embodiment tablet under accelerated storage conditions (ingredient content as % of claim); format: physicochemical; details: 40 +/- 2 deg C and 75 +/- 5% RH, 150 cc white HDPE bottle
[2] = Dissolution of ingredients from the tablet during accelerated stability testing; format: physicochemical; details: 40 +/- 2 deg C and 75 +/- 5% RH, 150 cc white HDPE bottle

| Compound | Result as % of claim at indicated weeks ([1]; 0 wk) | Result as % of claim at indicated weeks ([1]; 4 wk) | Result as % of claim at indicated weeks ([1]; 8 wk) | Result as % of claim at indicated weeks ([1]; 13 wk) | Result as % of claim at indicated weeks ([1]; 26 wk) | Dissolution, result as % of claim at indicated weeks ([2]; 13 wk) | Dissolution, result as % of claim at indicated weeks ([2]; 26 wk) | Dissolution, result as % of claim at indicated weeks ([2]; 0 wk) | Dissolution, result as % of claim at indicated weeks ([2]; 4 wk) | Dissolution, result as % of claim at indicated weeks ([2]; 8 wk) |
| --- | --- | --- | --- | --- | --- | --- | --- | --- | --- | --- |
| O=C1O[C@H]([C@@H](O)CO)C(O)=C1O [Vitamin C] | 108 % of claim | 106 % of claim | 103 % of claim | 114 % of claim | 104 % of claim |  |  |  |  |  |
| [Ca+2] [Calcium] |  |  |  | 120 % of claim | 118 % of claim | 119 % of claim | 115 % of claim |  |  |  |
| [Cu] [Copper] | 115 % of claim | 111 % of claim | 111 % of claim | 114 % of claim | 109 % of claim |  |  |  |  |  |
| [Se] [Selenium] | 103 % of claim | 136 % of claim | 123 % of claim | 129 % of claim | 126 % of claim |  |  |  |  |  |
| [Cr] [Chromium] | 139 % of claim | 128 % of claim | 120 % of claim | 133 % of claim | 121 % of claim |  |  |  |  |  |
| CC1=C(/C=C/C(C)=C/C=C/C(C)=C/C=C/C=C(C)/C=C/C=C(C)/C=C/C2=C(C)CCCC2(C)C)C(C)(C)CCC1 [Beta Carotene] | 123 % of claim | 139 % of claim | 130 % of claim | 144 % of claim | 124 % of claim |  |  |  |  |  |
| O=C(O)CCCC[C@@H]1SC[C@@H]2NC(=O)N[C@@H]21 [Biotin] | 105 % of claim | 101 % of claim | 100 % of claim | 114 % of claim | 93.0 % of claim |  |  |  |  |  |
| [Zn] [Zinc] | 121 % of claim | 109 % of claim | 117 % of claim | 108 % of claim | 112 % of claim | 107 % of claim |  | 117 % of claim | 102 % of claim | 104 % of claim |
| [Mn+2] [Manganese] | 119 % of claim | 114 % of claim | 115 % of claim | 115 % of claim | 113 % of claim |  |  |  |  |  |

More lines, main results first:

| Result as % of claim at indicated weeks ([1]; 0 wk) | Result as % of claim at indicated weeks ([1]; 4 wk) | Result as % of claim at indicated weeks ([1]; 8 wk) | Result as % of claim at indicated weeks ([1]; 13 wk) | Result as % of claim at indicated weeks ([1]; 26 wk) | Compound | Dissolution, result as % of claim at indicated weeks ([2]; 13 wk) | Dissolution, result as % of claim at indicated weeks ([2]; 26 wk) | Dissolution, result as % of claim at indicated weeks ([2]; 0 wk) | Dissolution, result as % of claim at indicated weeks ([2]; 4 wk) | Dissolution, result as % of claim at indicated weeks ([2]; 8 wk) |
| --- | --- | --- | --- | --- | --- | --- | --- | --- | --- | --- |
| 136 % of claim | 134 % of claim | 113 % of claim | 106 % of claim | 110 % of claim | Vitamin A |  |  |  |  |  |
| 131 % of claim | 144 % of claim | 170 % of claim | 156 % of claim | 150 % of claim | CC(C)=CCC/C(C)=C/C=C/C(C)=C/C=C/C(C)=C/C=C/C=C(C)/C=C/C=C(C)/C=C/C=C(\C)CCC=C(C)C [Lycopene] |  |  |  |  |  |
| 132 % of claim | 123 % of claim | 125 % of claim | 123 % of claim | 123 % of claim | Cc1cc2nc3c(=O)[nH]c(=O)nc-3n(C[C@H](O)[C@H](O)[C@H](O)CO)c2cc1C [Vitamin B2, Riboflavin] | 119 % of claim | 125 % of claim | 133 % of claim | 120 % of claim | 109 % of claim |
| 116 % of claim | 109 % of claim | 110 % of claim | 137 % of claim | 114 % of claim | Cc1ncc(CO)c(CO)c1O.Cl [Vitamin B6] |  |  |  |  |  |
| 169 % of claim | 132 % of claim | 125 % of claim | 120 % of claim | 117 % of claim | Nc1nc2ncc(CNc3ccc(C(=O)N[C@@H](CCC(=O)O)C(=O)O)cc3)nc2c(=O)[nH]1 [Folic Acid] |  |  |  |  |  |
| 108 % of claim |  | 109 % of claim | 122 % of claim | 107 % of claim | Silicon |  |  |  |  |  |
| 126 % of claim | 115 % of claim | 110 % of claim | 125 % of claim | 121 % of claim | Vitamin E |  |  |  |  |  |
